Assay [1] has as its system ovalbumin-induced anaphylactic paw edema. The assay can be described thus: Passive rat paw anaphylaxy (inhibition of edema volume; antiallergic and anti-inflammatory). It is filed as in vivo, male Sprague-Dawley rats. The settings on record: for inhibition in vivo at 25 mg/kg: 25 mg/kg p.o. 1 h before test; for inhibition in vivo at 30 mg/kg: 30 mg/kg p.o. 1 h before test. As for the experimental part: The determination of the antiallergic and anti-inflammatory properties of the compounds in accordance with the invention was using a passive rat paw anaphylaxy model.
Male Sprague-Dawley rats were utilized for all tests. The animals were kept under standardized environmental conditions with free access to food and water. For sensitization to the antigen 100 μl of a mouse antiserum to ovalbumin was injected sublplantarly into the left rear paw. […] The opposite paw was for control injected subplantarly only with 100 μl of the solvent (sterile physiological NaCl solution). Overnight the investigated animals were deprived of food but had water ad lib.
Per group in all tests between 6 and 8 animals were used. One hour later the anaphylactic reaction was caused by the intravenous injection of 10 mg/10 ml/kg ovalbumin in physiological NaCl solution. […] The edema volume was calculated from the difference between the values of the two paws. The antiallergic action is in this case expressed as a percentage inhibition of the edema volume of the animals in the test group as compared with control groups undergoing parallel investigation. […] The determination of the ED50 values was performed by linear regression after log transformation of the administered doses, at least three dosage rates being employed.

The test system of another assay is NMDA-induced death. Put plainly: NMDA test (25 mg/kg i.v.), prevention of NMDA-induced death (neuroprotective efficacy). In kind it is in vivo, male NMRI mice. The settings on record: Mus musculus, po, NMDA 25 mg/kg i.v.; for ED50: 1 h, dose protecting 50% of animals against NMDA-induced death one hour after application; for responders at 100 mg/kg: 100 mg/kg p.o. 1 h before test; for responders at 25 mg/kg: 25 mg/kg p.o. 1 h before test; for responders at 5 mg/kg: 5 mg/kg p.o. 1 h before test. As for the experimental part:
In order to determine the neuroprotective and anticonvulsive activity of the compounds in accordance with the invention of the general formula I, two slightly different methods were employed as follows: […]
1. In order to determine the neuroprotective efficacy NMDA at a rate of 25 mg/kg/10 ml was administered intravenously to male NMRI mice with a body weight of 20 to 25 g. As a consequence of this application the animals suffer clonic and partly tonic convulsions, which lead to death. As a criterion for the efficacy of the investigated compounds prevention of death is used.
All animals used in the investigations had free access to food and water prior to the experiments. The test and reference substances were all administered as a suspension in 0.2% agar or water, partly by the intermediary of solution promoters such as for instance PEG-400, perorally using an esophageal probe. Control animals received the same volumes of the solvent with optional solution promoters. One hour after the application of the substance NMDA was administered intravenously and the animals observed for the occurrence of convulsions.
In table 1 the results of the tests (NMDA 25 mg i.v.) performed in accordance with method 1 are compiled with dosages of 5-100 mg of the compounds in accordance with the invention per kg of body weight as compared with known NMDA-antagonists. As a percentage efficacy the percentage of surviving animals is used.
The determination of the ED50 values was performed in accordance with the method described in Lichtfield and Wilcoxon, J. Pharmacol. exp. Therapeut. 96, 99 (1949) in each case with 4 to 5 groups of 10 animals per dosage rate.

Where [2] appears, read: Rattus norvegicus, po, read-out: Protective action (percentage inhibition of edema volume).
The mark [3] stands for this setting: read-out: Protective action (percentage of surviving animals).
[4] abbreviates: Rattus norvegicus, po, p.o. 1 h before test, linear regression after log transformation of doses.

In the case of `COc1cc2oc(=O)ccc2cc1OCC(O)CN1CCC(C(O)(c2ccc(F)cc2)c2ccc(F)cc2)CC1` (racemic) [Example 25, (±)-6-{3-[4-(bis(4-fluorophenyl)hydroxymethyl)-1-piperidinyl]-2-hydroxypropoxy}-7-methoxy-2H-1-benzopyran-2-one], the inhibition in vivo at 25 mg/kg in assay [1] (setting [2]) is 43%. The 50% effect level with NMDA-induced death (ED50) was put at a dose of 77 mg/kg. Also, the responders at 100 mg/kg in the assay with NMDA-induced death (setting [3]) is 100%. Take `COc1cc2ccc(=O)oc2cc1OCCCN1CCN(C(c2ccc(F)cc2)c2ccc(F)cc2)CC1` [Example 8, 7-{3-[4-(bis(4-fluorophenyl)methyl)-1-piperazinyl]propoxy}-6-methoxy-2H-1-benzopyran-2-one]: the inhibition in vivo at 25 mg/kg in assay [1] (setting [2]) worked out at 35%. In the assay on NMDA-induced death (setting [3]), the responders at 100 mg/kg was determined as 62.5%. Regarding `CC(C)Oc1cc2ccc(=O)oc2cc1OCCCN1CCC(c2ccccc2)CC1` [Example 12, 6-(1-methylethoxy)-7-[3-(4-phenyl-1-piperidinyl)propoxy]-2H-1-benzopyran-2-one], the inhibition in vivo at 25 mg/kg in assay [1] (setting [2]) was 12%. Moreover, the responders at 25 mg/kg in the assay with NMDA-induced death (setting [3]) stood at 62.5%. Regarding `COc1cc2ccc(=O)oc2cc1OCCCN1CCC(C(O)(c2ccc(F)cc2)c2ccc(F)cc2)CC1` [Example 14, 7-{3-[4-(bis(4-fluorophenyl)hydroxymethyl)-1-piperidinyl]propoxy}-6-methoxy-2H-1-benzopyran-2-one], the “Action remains for a period with full effect” value in assay [1] (25 mg/kg p.o.) came out at 24 h. The inhibition in vivo at 25 mg/kg in assay [1] (setting [2]) was found to be 81%. Moreover, in assay [1] (setting [4]), the ED50 turned out to be 2.4 mg/kg. Further, the responders at 25 mg/kg in the assay on NMDA-induced death (setting [3]) was 37.5%. As for `COc1cc2oc(=O)ccc2cc1OCCCN1CCC(=C(c2ccc(F)cc2)c2ccc(F)cc2)CC1` [Example 15, 6-{3-[4-(bis(4-fluorophenyl)methylene)-1-piperidinyl]propoxy}-7-methoxy-2H-1-benzopyran-2-one], the inhibition in vivo at 25 mg/kg in assay [1] (setting [2]) is 60%. In the assay with NMDA-induced death (setting [3]), the responders at 25 mg/kg amounted to 50%. For `COc1cc2oc(=O)ccc2cc1OCCCN1CCC(C(c2ccccc2)c2ccccc2)CC1` [Example 16, 6-{3-[4-(diphenylmethyl)-1-piperidinyl]propoxy}-7-methoxy-2H-1-benzopyran-2-one], the inhibition in vivo at 25 mg/kg in assay [1] (setting [2]) was 60%. Moreover, the responders at 100 mg/kg in the assay with NMDA-induced death (setting [3]) was found to be 75%. For `COc1cc2ccc(=O)oc2cc1OCCCN1CCC(C(O)(c2ccccc2)c2ccccc2)CC1` [Example 17, 7-{3-[4-(diphenylhydroxymethyl)-1-piperidinyl]-propoxy}-6-methoxy-2H-1-benzopyran-2-one] the same measures were 83% and 37.5%. On to `COc1cc2oc(=O)cc(C)c2cc1OCCCN1CCN(c2ccccc2)CC1` [Example 26, 7-methoxy-4-methyl-6-[3-(4-phenyl-1-piperazinyl)propoxy]-2H-1-benzopyran-2-one], for which the inhibition in vivo at 25 mg/kg in assay [1] (setting [2]) came to 66%. In addition, the responders at 25 mg/kg with NMDA-induced death (setting [3]) was found to be 62.5%. Regarding `CCOc1ccccc1N1CCN(CCCOc2cc3c4c(c(=O)oc3cc2OC)CCC4)CC1` [Example 57, 8-{3-[4-(2-ethoxyphenyl)-1-piperazinyl]propoxy}-2,3-dihydro-7-methoxy-cyclopenta[c][1]benzopyran-4(1H)-one], in the assay on NMDA-induced death (setting [3]), the responders at 5 mg/kg worked out at 100%. For the compound `COc1cc2oc(=O)c3c(c2cc1OCCCN1CCN(c2ccccc2Cl)CC1)CCC3` [Example 58, 8-{3-[4-(2-chlorophenyl)-1-piperazinyl]propoxy}-2,3-dihydro-7-methoxy-cyclopenta[c][1]benzopyran-4(1H)-one], the ED50 in the assay with NMDA-induced death worked out at 1.8 mg/kg. Moreover, the responders at 5 mg/kg in the assay on NMDA-induced death (setting [3]) amounted to 100%. `COc1cc2oc(=O)c3c(c2cc1OCCCN1CCN(c2ccccc2C)CC1)CCC3` [Example 59, 2,3-dihydro-7-methoxy-8-{3-[4-(2-methylphenyl)-1-piperazinyl]propoxy}cyclopenta[c][1]benzopyran-4(1H)-one]: the ED50 with NMDA-induced death was determined as 1.1 mg/kg. For the same compound, the responders at 5 mg/kg in the assay with NMDA-induced death (setting [3]) worked out at 100%. In the case of `COc1cc2oc(=O)c3c(c2cc1OCCCN1CCN(c2ccccc2O)CC1)CCC3` [Example 60, 2,3-dihydro-8-{3-[4-(2-hydroxyphenyl)-1-piperazinyl]propoxy}-7-methoxy-cyclopenta[c][1]benzopyran-4(1H)-one], the responders at 5 mg/kg in the assay on NMDA-induced death (setting [3]) came to 62.5%. `COc1cc2oc(=O)c3c(c2cc1OCCCN1CCN(c2ccc([N+](=O)[O-])cc2)CC1)CCC3` [Example 61, 2,3-dihydro-7-methoxy-8-{3-[4-(4-nitrophenyl)-1-piperazinyl]propoxy}cyclopenta[c][1]benzopyran-4(1H)-one]: the responders at 100 mg/kg in the assay on NMDA-induced death (setting [3]) came out at 25%. Turning to `COc1cc2oc(=O)c3c(c2cc1OCCCN1CCN(c2ccccn2)CC1)CCC3` [Example 62, 2,3-dihydro-7-methoxy-8-{3-[4-(2-pyridinyl)-1-piperazinyl]propoxy}cyclopenta[c][1]benzopyran-4(1H)-one], in the assay with NMDA-induced death (setting [3]), the responders at 25 mg/kg is 87.5%. Turning to `COc1cc2oc(=O)c3c(c2cc1OCCCN1CCN(c2ncccn2)CC1)CCC3` [Example 63, 2,3-dihydro-7-methoxy-8-{3-[4-(2-pyrimidinyl)-1-piperazinyl]propoxy}cyclopenta[c][1]benzopyran-4(1H)-one], the responders at 25 mg/kg with NMDA-induced death (setting [3]) came to 12.5%.

On to `COc1cc2oc(=O)c3c(c2cc1OCCCN1CCC(Cc2ccccc2)CC1)CCC3` [Example 64], for which the responders at 25 mg/kg with NMDA-induced death (setting [3]) was found to be 75%. `COc1cc2oc(=O)c3c(c2cc1OCCCN1CCC(C(O)(c2ccc(F)cc2)c2ccc(F)cc2)CC1)CCC3` [Example 65, 8-{3-[4-(bis(4-fluorophenyl)hydroxymethyl)-1-piperidinyl]propoxy}-2,3-dihydro-7-methoxy-cyclopenta[c][1]benzopyran-4(1H)-one]: the responders at 100 mg/kg in the assay on NMDA-induced death (setting [3]) is 12.5%. As for `COc1cc2oc(=O)c3c(c2cc1OCCCN1CCN(c2ccccc2F)CC1)CCC3` [Example 66, 8-{3-[4-(2-fluorophenyl)-1-piperazinyl]propoxy}-2,3-dihydro-7-methoxy-cyclopenta[c][1]benzopyran-4(1H)-one], in the assay with NMDA-induced death (setting [3]), the responders at 5 mg/kg was 100%. For `COc1ccc(CCN2CCC(Nc3nc4ccccc4n3Cc3ccc(F)cc3)CC2)cc1` [astemizole, reference compound], the inhibition in vivo at 10 mg/kg in assay [1] (Rattus norvegicus, po, 10 mg/kg p.o. 1 h before test, read-out: Protective action (percentage inhibition of edema volume)) is 70%. For the same compound, in assay [1] (setting [4]), the ED50 stood at 3.1 mg/kg. As for `O=C(O)c1cc(=O)c2c(OCC(O)COc3cccc4oc(C(=O)O)cc(=O)c34)cccc2o1` [cromoglycate, reference compound], the inhibition in vivo at 2.25 mg/kg in assay [1] (Rattus norvegicus, 2.25 mg/kg, intravenous immediately prior to test, read-out: Protective action (percentage inhibition of edema volume)) was 58%. Moreover, the ED50 in assay [1] (Rattus norvegicus, intravenous treatment immediately prior to test (footnote), head says p.o.) is 1.1 mg/kg. Besides, the oral effectiveness result in assay [1] (oral) was “orally not effective”.

As for `CN(C)CCOC(c1ccccc1)c1ccccc1` [diphenhydramine, reference compound], the inhibition in vivo at 100 mg/kg in assay [1] (Rattus norvegicus, po, 100 mg/kg p.o. 1 h before test, read-out: Protective action (percentage inhibition of edema volume)) was found to be 54%. In addition, in assay [1] (setting [4]), it took a dose of 73 mg/kg to reach the 50% effect level (ED50). `CNC1(c2ccccc2Cl)CCCCC1=O` (centres unmarked) [ketamine, reference compound]: the responders at 20 mg/kg with NMDA-induced death (20 mg/kg p.o. 1 h before test, read-out: Protective action (percentage of surviving animals)) came out at 0%. Consider `CN1CCC(=C2c3ccccc3CC(=O)c3sccc32)CC1` [ketotifen, reference compound], for which the inhibition in vivo at 30 mg/kg in assay [1] (setting [2]) came out at 77%. The ED50 in assay [1] (setting [4]) amounted to 5.6 mg/kg.

For the compound `O=c1[nH]c2ccccc2n1CCCN1CCN(C(c2ccccc2)c2ccccc2)CC1` [oxatomide, reference compound], the inhibition in vivo at 30 mg/kg in assay [1] (setting [2]) was 75%. For the same compound, the ED50 in assay [1] (setting [4]) came to 7.3 mg/kg. Regarding `Cc1c(C)c2ccc(OCCCN3CCN(Cc4ccc(Cl)cc4)CC3)cc2oc1=O` [picumast, reference compound], the inhibition in vivo at 25 mg/kg in assay [1] (setting [2]) is -21%.

For the origin of these results see patent publication US5428038A, “Benzopyranones, a method for producing them and uses therefor” (Dr. Willmar Schwabe GmbH & Co., priority 1991, dated 1995).
